{"source": "patent US20210100897A1", "about": "“METHODS FOR THE STIMULATION OF DENDRITIC CELL (DC) PRECURSOR POPULATION \"PRE-DC\" AND THEIR USES THEREOF” (AGENCY FOR SCIENCE, TECHNOLOGY AND RESEARCH, priority 2017, published 2021)", "assay_type_in_all_cases": "cell-based, human", "key": {"pDC [1]": {"test_system": "pDC", "test": "Luminex Drop Array assay on sorted and stimulated pDC, culture supernatants", "conditions": "TLR7/8 or TLR9 stimulation; FIG. 2G and FIG. 13", "procedure": "(§1) A total of 2,000 cells/well of sorted pre-DC and DC subsets were seeded in V-bottom 96 well plates and then incubated for 18 h in 50 μL complete RPMI-1640 Glutmax media (Life Technologies) supplemented with 10% FBS and 1% penicillin/streptomycin, and stimulated with either LPS, LPS+IFNγ, Flagellin, polyI:C, Imidazoquinoline or CpG oligodeoxynucleotides (ODN) 2216. Cells were then pelleted and 30 μL supernatant was collected. A Luminex® Drop Array™ was performed using 5 μL of the supernatant. Human G-CSF, GM-CSF, IFN-α2, IL-10, IL-12p40, IL-12p70, IL-15, IL-1RA, IL-1a, IL-1b, IL-6, IL-7, IL-8, MIP-1b, TNF-α, TNF-β were tested by multiplexing (EMD Millipore) with DropArray-bead plates (Curiox) according to the manufacturer's instructions. Acquisition was performed using xPONENT 4.0 (Luminex) acquisition software, and data analysis was performed using Bio-Plex Manager 6.1.1 (Bio-Rad)."}, "pDC [2]": {"test_system": "pDC", "test": "Intracellular cytokine detection following stimulation with TLR ligands (PBMC, flow cytometry), pDC", "conditions": "PBMC stimulated 6 h with TLR agonist", "procedure": "All antibodies used for fluorescence-activated cell sorting (FACS) and flow cytometry were mouse anti-human monoclonal antibodies (mAbs), except for chicken anti-human CADM1 IgY primary mAb. Briefly, 5×10^6 cells/tube were washed and incubated with Live/Dead blue dye (Invitrogen) for 30 min at 4° C. in phosphate buffered saline (PBS) and then incubated in 5% heat-inactivated fetal calf serum (FCS) for 15 min at 4° C. (Sigma Aldrich). The appropriate antibodies diluted in PBS with 2% fetal calf serum (FCS) and 2 mM EDTA were added to the cells and incubated for 30 min at 4° C., and then washed and detected with the secondary reagents. For intra-cytoplasmic or intra-nuclear labeling or staining, cells were fixed and permeabilized with BD Cytofix/Cytoperm (BD Biosciences) or with eBioscience FoxP3/Transcription Factor Staining Buffer Set (eBioscience/Affimetrix), respectively according to the manufacturer's instructions. Flow cytometry was performed using a BD LSRII or a BD FACSFortessa (BD Biosciences) and the data analyzed using BD FACSDiva 6.0 (BD Biosciences) or FlowJo v.10 (Tree Star Inc.). For isolation of precursor dendritic cells (pre-DC), PBMC were first depleted of T cells, monocytes and B cells with anti-CD3, anti-CD14 and anti-CD20 microbeads (Miltenyi Biotec) using an AutoMACS Pro Separator (Miltenyi Biotec) according to the manufacturer's instructions. […]"}, "pre-DC": {"test_system": "pre-DC", "test": "Luminex Drop Array assay on sorted and stimulated pre-DC, culture supernatants", "conditions": "TLR7/8 or TLR9 stimulation; FIG. 2G and FIG. 13", "procedure": "as §1"}}}
{"molecule": "CCOCc1nc2c([nH]1)c(N)nc1ccccc12", "note": "[CL097]", "values": [{"measurement": "IFNα secretion by pure pDC cultures", "setting": "pDC [1]", "result": "abundant secretion"}, {"measurement": "IL-12p40 secretion by pure pDC cultures", "setting": "pDC [1]", "result": "but not IL-12p40"}, {"measurement": "IFN-α production by pDC", "setting": "pDC [2]", "result": "robust"}, {"measurement": "IL-12p40 secretion by pre-DC", "setting": "pre-DC", "result": "readily secreted"}]}
